The viscosity is the internal friction of a fluid under shear. A higher viscosity goes with sluggish flow.

The series can be described thus: xn = mol fraction of the nth substance listed. Particulars: 100 kPa.

As for `C[n+]1ccn(CCC(F)(F)C(F)(F)F)c1.F[P-](F)(F)(F)(F)F` + CCCC[n+]1ccn(C)c1.F[P-](F)(F)(F)(F)F, the viscosity was found to be 430 mPa·s (293.2 K, x2 = 0.91); 370 mPa·s (293.2 K, x2 = 0.972); 171 mPa·s (308.19 K, x2 = 0.91); 153 mPa·s (308.19 K, x2 = 0.972); 46.2 mPa·s (338.16 K, x2 = 0.91); 17.6 mPa·s (368.13 K, x2 = 0.91). For the same compound, the viscosity (368.13 K, x2 = 0.972) was found to be 16.38 mPa·s.

For the compound `CCCC[n+]1ccn(C)c1.F[P-](F)(F)(F)(F)F` + C[n+]1ccn(CCC(F)(F)C(F)(F)F)c1.F[P-](F)(F)(F)(F)F, the viscosity is recorded as 343 mPa·s (293.2 K, x1 = 1); 144 mPa·s (308.19 K, x1 = 1); 39.5 mPa·s (338.16 K, x1 = 1); 16.34 mPa·s (368.13 K, x1 = 1).

Source of the values: a compilation of properties of binary mixtures (doi:10.1007/s10765-020-02720-w).
